Measurements taken from PubChem BioAssay AID248 (DTP/NCI, 2004).
Inconclusive results and toxic doses are left out. No stated cut-off is given here; in the data, active means T/C of 150% or more; inactive means T/C below 125%.

System: L1210 leukemia ip in BDF1 mice, survival T/C
Assay: NCI In Vivo Anticancer Drug Screen. Data for tumor model L1210 Leukemia (intraperitoneal) in B6D2F1 (BDF1) mice
Conditions: endpoint: mean survival time, higher = longer survival
How it was run: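 Transplantable tumor model; survival measured in treated vs vehicle control mice. Value = treated/control.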

[1] = dose: 100.0 mg/kg/injection, schedule: Q04DX003 (ip), vehicle: saline
[2] = dose: 200.0 mg/kg/injection, schedule: Q04DX003 (ip), vehicle: saline
[3] = dose: 400.0 mg/kg/injection, schedule: Q04DX003 (ip), vehicle: saline
[4] = dose: 50.0 mg/kg/injection, schedule: Q04DX002 (ip), vehicle: saline with Tween-80
[5] = dose: 100.0 mg/kg/injection, schedule: Q04DX002 (ip), vehicle: saline with Tween-80
[6] = dose: 200.0 mg/kg/injection, schedule: Q04DX002 (ip), vehicle: saline with Tween-80
[7] = dose: 400.0 mg/kg/injection, schedule: Q04DX002 (ip), vehicle: saline with Tween-80
[8] = dose: 100.0 mg/kg/injection, schedule: Q04DX003 (ip), vehicle: Klucel (hydroxypropylcellulose) (HPC)
[9] = dose: 200.0 mg/kg/injection, schedule: Q04DX003 (ip), vehicle: Klucel (hydroxypropylcellulose) (HPC)
[10] = dose: 400.0 mg/kg/injection, schedule: Q04DX003 (ip), vehicle: Klucel (hydroxypropylcellulose) (HPC)

Measured: T/C

Cc1c2cc3c(c1O)C(=O)CC(O3)c1ccc(O)c(c1)-c1cccc(c1O)C(=O)OCC1OC(O2)C(O)C(O)C1O (stereo not drawn)
inactive: dose: 0.13 mg/kg/injection, schedule: Q01DX009 (ip), vehicle: Klucel (hydroxypropylcellulose) (HPC) 104 % of control | dose: 0.25 mg/kg/injection, schedule: Q01DX009 (ip), vehicle: Klucel (hydroxypropylcellulose) (HPC) 97 % of control | dose: 0.5 mg/kg/injection, schedule: Q01DX009 (ip), vehicle: Klucel (hydroxypropylcellulose) (HPC) 98 % of control | dose: 1.0 mg/kg/injection, schedule: Q01DX009 (ip), vehicle: Klucel (hydroxypropylcellulose) (HPC) 103 % of control

CN1C2CCCCC1CC(=O)NC2 (stereo not drawn)
inactive: dose: 75.0 mg/kg/injection, schedule: Q01DX001 (ip), vehicle: saline 98 % of control | dose: 150.0 mg/kg/injection, schedule: Q01DX001 (ip), vehicle: saline 101 % of control

O=C(CCCCn1cnc2c(=S)nc[nH]c21)Nc1ccc(C(=O)O)cc1
inactive: dose: 50.0 mg/kg/injection, schedule: Q01DX Z (ip), vehicle: carboxymethylcellulose (CMC) 101 % of control | dose: 100.0 mg/kg/injection, schedule: Q01DX Z (ip), vehicle: carboxymethylcellulose (CMC) 95 % of control | dose: 200.0 mg/kg/injection, schedule: Q01DX Z (ip), vehicle: carboxymethylcellulose (CMC) 104 % of control | dose: 400.0 mg/kg/injection, schedule: Q01DX Z (ip), vehicle: carboxymethylcellulose (CMC) 96 % of control

c1ccc(C2C(c3ccccc3)C(c3ccccc3)C2c2ccccc2)cc1 (stereo not drawn)
inactive: dose: 75.0 mg/kg/injection, schedule: Q01DX001 (ip), vehicle: carboxymethylcellulose (CMC) 91 % of control | dose: 150.0 mg/kg/injection, schedule: Q01DX001 (ip), vehicle: carboxymethylcellulose (CMC) 94 % of control | dose: 300.0 mg/kg/injection, schedule: Q01DX001 (ip), vehicle: carboxymethylcellulose (CMC) 88 % of control

CC(=O)OC1C(C)C2C=CC(=O)C2(C)CC2C1OC(=O)C2(O)CO (stereo not drawn)
inactive: dose: 25.0 mg/kg/injection, schedule: Q04DX002 (ip), vehicle: saline 116 % of control | dose: 50.0 mg/kg/injection, schedule: Q04DX002 (ip), vehicle: saline 113 % of control | dose: 100.0 mg/kg/injection, schedule: Q04DX002 (ip), vehicle: saline 95 % of control

CC(C)(O)CCCC1CCC2C3CCC4CCCCC4(C)C3CCC2(C)C1O (stereo not drawn)
inactive: dose: 100.0 mg/kg/injection, schedule: Q04DX002 (ip), vehicle: DMSO 86 % of control | dose: 200.0 mg/kg/injection, schedule: Q04DX002 (ip), vehicle: DMSO 96 % of control | dose: 400.0 mg/kg/injection, schedule: Q04DX002 (ip), vehicle: DMSO 92 % of control

O=C1OC(=O)C2C1C1C3C=CC3C1C21C=C1 (stereo not drawn)
inactive: dose: 100.0 mg/kg/injection, schedule: Q01DX009 (ip), vehicle: other 100 % of control | [1] 96 % of control | dose: 200.0 mg/kg/injection, schedule: Q01DX009 (ip), vehicle: other 109 % of control | [2] 93 % of control | dose: 400.0 mg/kg/injection, schedule: Q01DX009 (ip), vehicle: other 110 % of control | [3] 100 % of control

O=[N+]([O-])c1ccc2c3c(cccc13)CC2
inactive: dose: 100.0 mg/kg/injection, schedule: Q01DX001 (ip), vehicle: saline 102 % of control | dose: 200.0 mg/kg/injection, schedule: Q01DX001 (ip), vehicle: saline 96 % of control | dose: 400.0 mg/kg/injection, schedule: Q01DX001 (ip), vehicle: saline 90 % of control

CCOC(=O)CN(C)C#N
inactive: dose: 100.0 mg/kg/injection, schedule: Q01DX009 (ip), vehicle: saline 101 % of control | [1] 92 % of control | dose: 200.0 mg/kg/injection, schedule: Q01DX009 (ip), vehicle: saline 101 % of control | [2] 92 % of control | dose: 400.0 mg/kg/injection, schedule: Q01DX009 (ip), vehicle: saline 92 % of control | [3] 91 % of control

COc1cc(OC)c(/C=C/c2cnc3ccccc3n2)c(OC)c1
inactive: dose: 3.13 mg/kg/injection, schedule: Q04DX002 (ip), vehicle: saline with Tween-80 104 % of control | dose: 6.25 mg/kg/injection, schedule: Q04DX002 (ip), vehicle: saline with Tween-80 95 % of control | dose: 12.5 mg/kg/injection, schedule: Q04DX002 (ip), vehicle: saline with Tween-80 88 % of control | [4] 90 % of control

C1CCC2C(C1)CCCC2CCC1CCCC2CCCCC21 (stereo not drawn)
inactive: [4] 95 % of control | [5] 92 % of control | [6] 89 % of control | [7] 100 % of control

N=C(N)N/N=C(\C=N\NC(=N)N)c1ccc(Oc2ccc(C(/C=N/NC(=N)N)=N\NC(=N)N)cc2)cc1
inactive: dose: 3.8 mg/kg/injection, schedule: Q01DX Z (ip), vehicle: saline 98 % of control | dose: 7.5 mg/kg/injection, schedule: Q01DX Z (ip), vehicle: saline 114 % of control | dose: 15.0 mg/kg/injection, schedule: Q01DX Z (ip), vehicle: saline 118 % of control

Nc1cc(N)nc(S(=O)O)n1
inactive: dose: 25.0 mg/kg/injection, schedule: Q04DX003 (ip), vehicle: saline 93 % of control | dose: 44.0 mg/kg/injection, schedule: Q01DX Z (ip), vehicle: saline 119 % of control | dose: 50.0 mg/kg/injection, schedule: Q01DX009 (ip), vehicle: Klucel (hydroxypropylcellulose) (HPC) 95 % of control | dose: 50.0 mg/kg/injection, schedule: Q04DX003 (ip), vehicle: saline 92 % of control | dose: 66.0 mg/kg/injection, schedule: Q01DX Z (ip), vehicle: saline 113 % of control | dose: 100.0 mg/kg/injection, schedule: Q01DX009 (ip), vehicle: Klucel (hydroxypropylcellulose) (HPC) 95 % of control | dose: 100.0 mg/kg/injection, schedule: Q01DX Z (ip), vehicle: saline 101 % of control | [8] 107 % of control | [1] 101 % of control | dose: 200.0 mg/kg/injection, schedule: Q01DX009 (ip), vehicle: Klucel (hydroxypropylcellulose) (HPC) 89 % of control

CCCCOP(=O)(Nc1ccc(Cl)cc1)OCCCC
inactive: [5] 101 % of control | [6] 94 % of control | [7] 105 % of control

O=[N+]([O-])c1cc(C(F)(F)F)ccc1Oc1ccc(Cl)cc1
inactive: [8] 96 % of control | [9] 103 % of control | [10] 96 % of control

N#Cc1ccc(N2CCCc3ccccc32)c([N+](=O)[O-])c1
inactive: [8] 107 % of control | [9] 92 % of control | [10] 91 % of control

O=C1OCC/C1=C/CCCCC/C=C1\CCOC1=O
inactive: dose: 100.0 mg/kg/injection, schedule: Q01DX001 (sc), vehicle: olive oil, sesame oil, peanut oil 103 % of control | dose: 100.0 mg/kg/injection, schedule: Q04DX003 (sc), vehicle: olive oil, sesame oil, peanut oil 104 % of control | dose: 200.0 mg/kg/injection, schedule: Q01DX001 (sc), vehicle: olive oil, sesame oil, peanut oil 100 % of control | dose: 200.0 mg/kg/injection, schedule: Q04DX003 (sc), vehicle: olive oil, sesame oil, peanut oil 100 % of control | dose: 400.0 mg/kg/injection, schedule: Q01DX001 (sc), vehicle: olive oil, sesame oil, peanut oil 96 % of control | dose: 400.0 mg/kg/injection, schedule: Q04DX003 (sc), vehicle: olive oil, sesame oil, peanut oil 102 % of control

O=[N+]([O-])c1cc(Br)cc2c1nc(Cl)c1ccccc12
inactive: [8] 98 % of control | [9] 101 % of control | [10] 98 % of control

Brc1cccc[n+]1CCC[n+]1ccccc1Br
inactive: dose: 2.2 mg/kg/injection, schedule: Q01DX Z (ip), vehicle: saline 93 % of control | dose: 3.3 mg/kg/injection, schedule: Q01DX Z (ip), vehicle: saline 87 % of control | dose: 5.0 mg/kg/injection, schedule: Q01DX Z (ip), vehicle: saline 98 % of control

CC1(C)CC2CCC1(Cl)CC2Cl (stereo not drawn)
inactive: dose: 50.0 mg/kg/injection, schedule: Q01DX009 (ip), vehicle: saline + alcohol 100 % of control | dose: 100.0 mg/kg/injection, schedule: Q01DX009 (ip), vehicle: saline + alcohol 93 % of control
